In patent publication EP2776398B1, “SUBSTITUTED PYRAZOLYL-BASED UREA DERIVATIVES AS VANILLOID RECEPTOR LIGANDS” (Medifron DBT Inc., priority 2011, dated 2013):

Each molecule was assayed against T1, vanilloid receptor 1 (VR1/TRPV1 receptor) (Homo sapiens, UniProt Q8NER1) (assay: Functional testing on vanilloid receptor 1: FLIPR Ca2+ influx assay against capsaicin (Cap) in transfected CHO K1 cells (pharmacological method II)). Conditions: human VR1 in CHO K1 cells; AG printed instead of a Ki.
T1 construct: expressed in transfected cells; host or cells: CHO K1 cells (ECACC), stably transfected
T1 sequence (Q8NER1 whole entry): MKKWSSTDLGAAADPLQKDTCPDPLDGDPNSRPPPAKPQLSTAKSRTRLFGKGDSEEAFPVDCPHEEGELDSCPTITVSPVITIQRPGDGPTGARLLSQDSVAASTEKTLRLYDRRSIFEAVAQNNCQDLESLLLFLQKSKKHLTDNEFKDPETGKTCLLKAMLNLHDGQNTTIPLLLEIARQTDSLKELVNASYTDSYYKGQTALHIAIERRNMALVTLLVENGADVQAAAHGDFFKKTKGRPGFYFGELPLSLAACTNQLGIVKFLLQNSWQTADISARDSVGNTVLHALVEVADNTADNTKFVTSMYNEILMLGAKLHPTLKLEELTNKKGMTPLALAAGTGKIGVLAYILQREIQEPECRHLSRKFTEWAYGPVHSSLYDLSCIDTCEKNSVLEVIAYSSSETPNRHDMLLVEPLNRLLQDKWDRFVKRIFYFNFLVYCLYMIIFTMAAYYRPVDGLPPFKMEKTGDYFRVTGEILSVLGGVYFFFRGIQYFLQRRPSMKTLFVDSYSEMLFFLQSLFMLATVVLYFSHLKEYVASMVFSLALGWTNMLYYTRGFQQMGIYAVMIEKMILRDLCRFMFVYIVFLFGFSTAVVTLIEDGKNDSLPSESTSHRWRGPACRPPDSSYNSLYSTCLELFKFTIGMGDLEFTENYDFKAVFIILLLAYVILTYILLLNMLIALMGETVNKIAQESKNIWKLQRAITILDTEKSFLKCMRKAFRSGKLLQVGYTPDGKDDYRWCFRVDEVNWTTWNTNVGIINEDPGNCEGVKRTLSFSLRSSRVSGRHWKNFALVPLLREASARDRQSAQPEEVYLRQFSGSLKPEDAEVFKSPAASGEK
Type: cell-based
Set-up: key to (f) Ki (human being) [nM] Cap: agonist classification: AG = agonist
Description: […]
For Ki in this document: 100 nM capsaicin.

| (f) Ki (human being) [nM] Cap: agonist classification | Compound |
| --- | --- |
| AG | COc1ccc(NC(=O)NCc2cc(C(C)(C)C)nn2-c2cccc(Cl)c2)cc1OC [A13, 1-[[5-tert-Butyl-2-(3-chlorophenyl)-2H-pyrazol-3-yl]-methyl]-3-(3,4-dimethoxyphenyl)-urea] |

Same assay, conditions: read-out: (f) Ki (human being) [nM] Cap

| Compound | Ki [nM] |
| --- | --- |
| COc1cccc(-n2nc(C(F)(F)F)cc2CNC(=O)C(C)c2ccc(CO)c(F)c2)c1 (centres unmarked) [A43, 2-[3-Fluoro-4-(hydroxymethyl)-phenyl]-N-[[2-(3-methoxyphenyl)-5-(trifluoromethyl)-2H-pyrazol-3-yl]-methyl]-propionamide] | 21 |
| CC(C(=O)NCc1cc(C(F)(F)F)nn1-c1ccc(F)cc1)c1ccc(CO)c(F)c1 (centres unmarked) [A46, 2-[3-Fluoro-4-(hydroxymethyl)-phenyl]-N-[[2-(4-fluorophenyl)-5-(trifluoromethyl)-2H-pyrazol-3-yl]-methyl]-propionamide] | 46 |
| CC(C)(C)c1cc(CNC(=O)Nc2ccc(CO)c(F)c2)n(-c2cccc(F)c2)n1 [A54, 1-[[5-tert-Butyl-2-(3-fluorophenyl)-2H-pyrazol-3-yl]-methyl]-3-[3-fluoro-4-(hydroxymethyl)-phenyl]-urea] | 6 |
| C[C@H](C(=O)NCc1cc(C(F)(F)F)nn1-c1cccc(Cl)c1)c1ccc(CO)c(F)c1 [A34, (2S)-N-[[2-(3-Chlorophenyl)-5-(trifluoromethyl)-2H-pyrazol-3-yl]-methyl]-2-[3-fluoro-4-(hydroxymethyl)-phenyl]-propionamide] | 37 |

The remaining lines, values ahead:

| Ki [nM] | Compound |
| --- | --- |
| 6 | O=C(NCc1cc(C(F)(F)F)nn1-c1ccc(F)c(Cl)c1)Nc1ccc(CO)c(F)c1 [A65, 1-[[2-(3-Chloro-4-fluoro-phenyl)-5-(trifluoromethyl)-2H-pyrazol-3-yl]-methyl]-3-[3-fluoro-4-(hydroxymethyl)-phenyl]-urea] |
| 79 | CC(C(=O)NCc1cc(C(F)(F)F)nn1-c1cc(F)cc(F)c1)c1ccc(COCCO)c(F)c1 (centres unmarked) [A126, N-[[2-(3,5-Difluoro-phenyl)-5-(trifluoromethyl)-2H-pyrazol-3-yl]-methyl]-2-[3-fluoro-4-(2-hydroxy-ethoxy-methyl)-phenyl]-propionamide] |
| 9 | O=C(NCc1cc(C(F)(F)F)nn1-c1cc(F)cc(F)c1)Nc1ccc(CO)c(F)c1 [A66, 1-[[2-(3,5-Difluoro-phenyl)-5-(trifluoromethyl)-2H-pyrazol-3-yl]-methyl]-3-[3-fluoro-4-(hydroxymethyl)-phenyl]-urea] |
